According to US9889183B2, “PKC activators and anticoagulant in regimen for treating stroke” (BLANCHETTE ROCKEFELLER NEUROSCIENCES INSTITUTE, priority 2010, dated 2018):

Key:
[1] = tested on: TACE in N2a neuroblastoma cells; experiment: TACE assay, N2a cells; format: cell-based; conditions: N2a mouse neuroblastoma cells, FIG. 13a
Procedure: (§1) FIGS. 13a, 13b and 13c show effects of (FIG. 13a) bryostatin, BR-101 (DCP-LA) and BR-111 (DHA-CP6) on TACE activity in N2a neuroblastoma cells transfected with human APPSwe/PS1D; (FIG. 13b) various concentrations of bryostatin on TACE activity in rat cortical primary neurons; and (FIG. 13c) BR-111 (DHA-CP6) on TACE activity in rat cortical primary neurons.
(§2) TACE Assay. TACE was measured by incubating 5 μl cell homogenate, 3 μl buffer (50 mM Tris-HCl 7.4 plus 25 mM NaCl plus 4% glycerol), and 1 μl of 100 μM TACE substrate (Aβz-[…]-DPa) (Calbiochem) for 20 min at 37° C. 1.5-ml polypropylene centrifuge tubes. Jin et al., Anal. Biochem. (2002), vol. 302, pp. 269-275. The reaction was stopped by cooling to 4° C. The samples were diluted to 1 ml and the fluorescence was rapidly measured (ex=320 nm, em=420 nm) in a Spex Fluorolog 2 spectrofluorometer.
(§3) Buxbaum et al., J Biol. Chem. (1998), vol. 273, pp. 27765-27767; Etcheberrigaray et al., Proc. Natl. Acad. Sci. USA (2006), vol. 103, pp. 8215-8220. However, many of these earlier studies were carried out in fibroblasts and other non-neuronal cell types, which appear to respond differently to PKC activators than neurons.

[2] = tested on: Aβ in neuro2a (N2a) neuroblastoma cells; experiment: Aβ production in N2a cells transfected with human APPSwe/PS1D (ELISA); format: cell-based, mouse; conditions: for levels of intracellular Aβ / levels of secreted Aβ: various concentrations; for levels of intracellular Aβ: FIG. 11a; for levels of secreted Aβ: FIG. 11b; for concentration dependence of Aβ inhibition: up to 10 μM to 100 μM, no evidence of downregulation
Procedure: Cell culture. Rat hippocampal H19-7/IGF-IR cells (ATCC, Manassas, Va.) were plated onto poly-L-lysine coated plates and grown at 35° C. in DMEM/10% FCS for several days until about 50% coverage was obtained. The cells were then induced to differentiate into a neuronal phenotype by replacing the medium with 5 ml N2 medium containing 10 ng/ml basic fibroblast growth factor at 39° C. and grown in T-75 flasks at 37° C. Human SH-SY5Y neuroblastoma cells (ATCC) were cultured in 45% F12K/45% MEM/10% FCS. Mouse N2A neuroblastoma cells were cultured in DMEM/10% FCS without glutamine. Rat hippocampal neurons from 18-day-old embryonic Sprague Dawley rat brains were plated on 12- or 96-well plates coated with poly-D-lysine (Sigma-Aldrich, St. Louis, Mo.) in B-27 neurobasal medium containing 0.5 mM glutamine and 25 μM glutamate (Invitrogen, Carlsbad, Calif.) and cultured for three days in the medium without glutamate. The neuronal cells were grown under 5% CO2 in an incubator maintained at 37° C. for 14 days.
(§4) Aβ Measurement and Cell Viability Assay. Aβ was measured using an Aβ 1-42 human fluorimetric ELISA kit (Invitrogen) according to the manufacturer's instructions. Results were measured in a Biotek Synergy HT microplate reader. AlamarBlue and CyQuant NF (Invitrogen) according to the manufacturer's instructions.
To measure the effects of PKCε activation on Aβ production, mouse neuro2a (N2a) neuroblastoma cells transfected with human APPSwe/PSID were used, which produce large quantities of Aβ. Petanceska et al., J Neurochem. (1996), vol. 74, pp. 1878-1884. […] With bryostatin, which activates PKC by binding to the diacylglycerol-binding site, the inhibition was biphasic with concentrations of 20 nM or higher producing no net effect. This may be explained by the ability of this class of PKC activators to downregulate PKC when used at high concentrations.

[3] = tested on: SH-SY5Y neuroblastoma cells; experiment: Cell survival and proliferation (alamar Blue, CyQuant); format: cell-based, human
Procedure: as §4

TACE in primary neurons = experiment: TACE assay, rat primary neurons; format: cell-based; conditions: FIG. 13b and 13c
Procedure: as §1, §2, §3

[4] = tested on: Endothelin-converting enzyme (ECE); experiment: ECE assay in neuroblastoma cells; format: cell-based, human; conditions: bryostatin 0.27 nM, BR-101 1 μM, BR-111 1 μM; FIG. 14
Procedure: ECE assay. […] neuroblastoma cells were incubated with bryostatin (0.27 nM), BR-101 (DCP-LA) (1 μM), and BR-111 (DHA-CP6) (1 μM). Endothelin-converting enzyme (ECE) was measured fluorimetrically using the method of Johnson and Ahn (Anal. Biochem. (2000), vol. 286, pp. 112-118). A sample of cell homogenate (20 μl) was incubated in 50 mM MES-KOH, pH 6.0, 0.01% C12E10 (polyoxyethylene-10-lauryl ether), and 15 μM McaBK2 (7-Methoxycoumarin-4-acetyl [Ala7-(2,4-Dinitrophenyl)Lys9]-bradykinin trifluoroacetate salt) (Sigma-Aldrich). After 60 min at 37° C., the reaction was quenched by adding trifluoroacetic acid to 0.5%. The sample was diluted to 1.4 ml with water and the fluorescence was measured at ex=334 nm, em=398 nm.

Row | Compound | TACE activity [1] | levels of intracellular Aβ ([2]; 24 hours) | levels of secreted Aβ ([2]; 24 hours) | concentration dependence of Aβ inhibition [2] | effect on cell survival (alamar Blue) [3] | effect on proliferation (CyQuant) [3] | TACE activity (TACE in primary neurons) | ECE activity [4] | concentrations producing no net effect on Aβ (biphasic inhibition) ([2]; 24 hours) [nM]
1 | CCC1CC1CC1CC1CC1CC1CC1CC1CC1CC1CC1CC1CCC(=O)OC (centres unmarked) [BR-111, methyl-3-(2-((2-((2-((2-((2-((2-ethylcyclopropyl)methyl)cyclopropyl)methyl)cyclopropyl)methyl)-cyclopropyl)methyl)cyclopropyl)methyl)cyclopropyl)propanoate] | small increases | markedly reduced | markedly reduced | monotonically increasing inhibition | no effect | no effect | small increases | sustained increase | –
2 | CCC/C=C/C=C/C(=O)O[C@H]1/C(=C/C(=O)OC)C[C@H]2C[C@H]([C@@H](C)O)OC(=O)C[C@H](O)C[C@@H]3C[C@H](OC(C)=O)C(C)(C)[C@](O)(C[C@@H]4C/C(=C/C(=O)OC)C[C@H](/C=C/C(C)(C)[C@]1(O)O2)O4)O3 [Bryostatin-1, bryostatin-1] | small increases | markedly reduced | markedly reduced | – | no effect | no effect | small increases | sustained increase | ≥ 20
3 | CCCCCC1CC1CC1CC1CCCCCCCC(=O)O (centres unmarked) [BR-101, 2-[(2-pentylcyclopropyl)methyl]cyclopropaneoctanoic acid] | small increases | markedly reduced | markedly reduced | monotonically increasing inhibition | no effect | no effect | – | sustained increase | –
